One experiment relates to Plasmodium falciparum. Put plainly: Antimicrobial activity against chloroquine-resistant Plasmodium falciparum. It is filed as functional, organism-based.
The test system of another experiment is RPMI-8226. Put plainly: Cytotoxicity against human RPMI8226 cells. It is filed as functional.
The next experiment has as its system MOLT-4. Put plainly: Cytotoxicity against human MOLT4 cells. It is filed as functional.
A further experiment deals with CCRF-CEM. Description: Cytotoxicity against human CCRF-CEM cells. It is filed as functional.
For a further experiment, the system named is SR. Put plainly: Cytotoxicity against human SR cells. Type of experiment: functional.
Experiment [1] can be described thus: Inhibition of Aplysia californica nicotinic acetylcholine receptor.
Experiment [2] relates to Mycobacterium tuberculosis. Put plainly: Antimicrobial activity against Mycobacterium tuberculosis H37Rv at 128 ug/ml. It is filed as functional.

What is called IC50 is the concentration at which inhibition is half-maximal. One may read the GI50 as the concentration giving 50% growth inhibition. The low end stands for more potent growth inhibition, the high end for less potent growth inhibition. In turn, `C=C(C=O)[C@H]1CC(=O)[C@@H](C(=O)OC)[C@@H]2O[C@@](C)(CC2=O)C[C@@H]2OC(=O)[C@]3(O[C@@H]23)[C@@H](OC(C)=O)C1` [BIPINNATIN Q] had an IC50 with Plasmodium falciparum above 10 µg/mL. In addition, the GI50 turned out to be 4.1 µM in the experiment on RPMI-8226, 4.2 µM with MOLT-4, 5.8 µM in the experiment with CCRF-CEM and 2.6 µM with SR.

On to `C=C(C=O)[C@H]1CC2=C(C(=O)OC)C=C(O2)[C@H]2O[C@]2(C)C[C@@H]2OC(=O)[C@]3(O[C@@H]23)[C@H](OC(C)=O)C1` [BIPINNATIN E], for which, in experiment [1], the IC50 turned out to be 0.23 µM. This lies in the sub-micromolar range.

On to `C=C(C)[C@@H]1CCC2=C[C@H](C[C@@]3(C)O[C@@H]3[C@]3(O)C=C(C)C(=O)[C@H]1O3)OC2=O` [BIPINNATIN N], for which, in the experiment on Plasmodium falciparum, the IC50 was above 10 µg/mL.

Usually inhibition stands for the change of the read-out against control, counted positive when it falls. Low values mean a response near the control, high ones a response far below the control. Regarding `C=C(C(=O)OC)[C@@H]1C[C@@H](OC(C)=O)C2=C[C@H](C[C@@]3(C)O[C@@H]3[C@@]3(O)C=C(C)[C@](O)(O3)[C@H]1OC(C)=O)OC2=O` [BIPINNATIN M], the IC50 in the experiment on Plasmodium falciparum was above 10 µg/mL. The compound further had an inhibition at 128 µg/mL in experiment [2] of 20%.
